Laboratory results as given in patent EP1969935A1, “3.4-disubstituted phenoxy phenylamidines and their use as fungicides” (Bayer CropScience AG, priority 2007, dated 2008).

Key:
logP determination = type: physicochemical; details: pH 2.3; given in the preparation examples; read-out: log P (pH2.3)
Podosphaera leucotricha = assay: Podosphaera test (apple) / protective; type: in vivo; details: 100ppm active ingredient, apple plants sprayed protectively, evaluated 10 days after inoculation; 0% = control, 100% = no infestation
Source text: Beispiel 1: Podosphaera-Test (Apfel) / protektiv
(§1) Zur Herstellung einer zweckmäßigen Wirkstoffzubereitung vermischt man 1 Gewichtsteil Wirkstoff mit den angegebenen Mengen Lösungsmittel und Emulgator und verdünnt das Konzentrat mit Wasser auf die gewünschte Konzentration.
(§2) Zur Prüfung auf protektive Wirksamkeit werden junge Pflanzen mit der Wirkstoffzubereitung in der angegebenen Aufwandmenge besprüht. Nach Antrocknen des Spritzbelages werden die Pflanzen mit einer wäßrigen Sporensuspension des Apfelmehltauerregers Podosphaera leucotricha inokuliert. Die Pflanzen werden dann im Gewächshaus bei ca. 23°C und einer relativen Luftfeuchtigkeit von ca. 70% aufgestellt.
(§3) 10 Tage nach der Inokulation erfolgt die Auswertung. Dabei bedeutet 0% ein Wirkungsgrad, der demjenigen der Kontrolle entspricht, während ein Wirkungsgrad von 100% bedeutet, daß kein Befall beobachtet wird.

Uromyces appendiculatus = assay: Uromyces test (bean) / protective; type: in vivo; details: 10ppm active ingredient, bean plants sprayed protectively, evaluated 10 days after inoculation; 0% = control, 100% = no infestation
Source text: In diesem Test zeigen die erfindungsgemäßen Verbindungen 10, 11, 12 und 13 (siehe Tab.IV) bei einer Konzentration an Wirkstoff von 100ppm einen Wirkungsgrad von 70% oder mehr. Beispiel 3: Uromyces - Test (Bohne) / protektiv
as §1
Zur Prüfung auf protektive Wirksamkeit werden junge Pflanzen mit der Wirkstoffzubereitung in der angegebenen Aufwandmenge besprüht. Nach Antrocknen des Spritzbelages werden die Pflanzen mit einer wäßrigen Sporensuspension des Bohnenrosterregers Uromyces appendiculatus inokuliert und verbleiben dann 1 Tag bei ca. 20°C und 100% relativer Luftfeuchtigkeit in einer Inkubations-kabine.
Die Pflanzen werden dann im Gewächshaus bei ca. 21°C und einer relativen Luftfeuchtigkeit von ca. 90% aufgestellt.
as §3

[1] = tested on: Erysiphe graminis f.sp. hordei; assay: Erysiphe test (barley) / protective; type: in vivo; details: 1000 ppm active ingredient, barley plants sprayed protectively, evaluated 7 days after inoculation; 0% = control, 100% = no infestation
Source text: Beispiel 4: Erysiphe-Test (Gerste) / protektiv
as §1
Zur Prüfung auf protektive Wirksamkeit besprüht man junge Pflanzen mit der Wirkstoffzubereitung in der angegebenen Aufwandmenge.
Nach Antrocknen des Spritzbelages werden die Pflanzen mit Sporen von Erysiphe graminis f.sp. hordei bestäubt.
Die Pflanzen werden in einem Gewächshaus bei einer Temperatur von ca. 20°C und einer relativen Luftfeuchtigkeit von ca. 80 % aufgestellt, um die Entwicklung von Mehltaupusteln zu begünstigen.
7 Tage nach der Inokulation erfolgt die Auswertung. Dabei bedeutet 0 % ein Wirkungsgrad, der demjenigen der Kontrolle entspricht, während ein Wirkungsgrad von 100 % bedeutet, daß kein Befall beobachtet wird.

Alternaria solani = assay: Alternaria test (tomato) / protective; type: in vivo; details: 500ppm active ingredient, tomato plants sprayed protectively, inoculated 1 day after treatment, evaluated 7 days after inoculation; 0% = control, 100% = no infestation
Source text: Beispiel 5: Alternaria-Test (Tomate) / protektiv
as §1
Zur Prüfung auf protektive Wirksamkeit bespritzt man junge Tomatenpflanzen mit der Wirkstoffzubereitung in der angegebenen Aufwandmenge. 1 Tag nach der Behandlung werden die Pflanzen mit einer Sporensuspension von Alternaria solani inokuliert und stehen dann 24h bei 100% rel. Feuchte und 20°C. Anschließend stehen die Pflanzen bei 96% rel. Luftfeuchtigkeit und einer Temperatur von 20 °C.
7 Tage nach der Inokulation erfolgt die Auswertung. Dabei bedeutet 0 % ein Wirkungsgrad, der demjenigen der Kontrolle entspricht, während ein Wirkungsgrad von 100 % bedeutet, dass kein Befall beobachtet wird.

Sphaerotheca fuliginea = assay: Sphaerotheca test (cucumber) / protective; type: in vivo; details: 100ppm active ingredient, cucumber plants sprayed protectively, evaluated 7 days after inoculation; 0% = control, 100% = no infestation
Source text: Beispiel 2: Sphaerotheca-Test (Gurke) / protektiv
as §1
as §2, with “von Sphaerotheca fuliginea” for “des Apfelmehltauerregers Podosphaera leucotricha”, “dann” for “dann im Gewächshaus”, “70% im Gewächshaus” for “70%”
7 Tage nach der Inokulation erfolgt die Auswertung. Dabei bedeutet 0% ein Wirkungsgrad, der demjenigen der Kontrolle entspricht, während ein Wirkungsgrad von 100% bedeutet, daß kein Befall beobachtet wird.

Row | logD (logP determination) | Structure (SMILES) | Wirkungsgrad (Podosphaera leucotricha) [%] | Wirkungsgrad (Uromyces appendiculatus) [%] | Wirkungsgrad [1] [%] | Wirkungsgrad (Alternaria solani) [%] | Wirkungsgrad (Sphaerotheca fuliginea) [%]
1 | 3.08 | Cc1cc(Oc2ccc3c(c2)CCCC3)c(C)cc1N [4-(5,6,7,8-Tetrahydro-2-napthoxy)-2,5-dimethylanilin] | – | – | – | – | –
2 | 5.86 | Cc1cc([N+](=O)[O-])c(C)cc1Oc1ccc2c(c1)CCCC2 [4-(5,6,7,8-Tetrahydro-2-napthoxy)-2,5-dimethylnitrobenzol] | – | – | – | – | –
3 | – | CCN(C)C=Nc1cc(C)c(Oc2ccc3c(c2)CCCC3)cc1C [Verbindung 13, N-E-thyl-N-methyl-N'-[4-(5,6,7,8-tetrahydro-2-napthoxy)-2,5-dimethylphenyl]form-amidin] | ≥ 70 | ≥ 70 | ≥ 70 | ≥ 70 | ≥ 70
